Experimental data from patent US6864259B2, “Antibacterial agents” (Warner-Lambert Company, priority 2001, dated 2005).
Values after ≈ are worked out from the molar mass of the structure shown. Where a name gives a salt, the structure may show the parent alone. Read-outs that look alike come from different tables or passages of the source.

Legend:
E. coli Tol C = assay: Test A antibacterial assay, standard microtitration (MIC); format: cell-based; conditions: Escherichia coli, read-out: Minimum Inhibitory Concentrations, E. coli Tol C
Protocol: (§1) The compounds of the present invention were tested against an assortment of Gram-negative and Gram-positive organisms using standard microtitration techniques (Cohen, et al., Antimicrob. Agents Chemother., 1985;28:766; Heifetz, et al., Antimicrob. Agents Chemother., 1974;6:124). […]

E. faecalis RB1 = assay: as above; format: cell-based; conditions: Enterococcus faecalis, Gram positive, read-out: Minimum Inhibitory Concentrations, E. faecalis RB1
Protocol: as §1

E. coli B90 = assay: as above; format: cell-based; conditions: Escherichia coli, Gram negative, read-out: Minimum Inhibitory Concentrations, E. coli B90
Protocol: as §1

S. aureus 29213 = assay: as above; format: cell-based; conditions: Staphylococcus aureus, Gram positive, read-out: Minimum Inhibitory Concentrations, S. aureus 29213
Protocol: as §1

S. pyogenes C203 = assay: as above; format: cell-based; conditions: Streptococcus pyogenes, Gram positive, read-out: Minimum Inhibitory Concentrations, S. pyogenes C203
Protocol: as §1

E. coli MC 4100 = assay: as above; format: cell-based; conditions: Escherichia coli, MC4100; Gram negative; read-out: Minimum Inhibitory Concentrations, E. coli MC 4100
Protocol: as §1

E. coli gyrase = E. coli gyrase (Escherichia coli, UniProt P0AES4+P0AES6); assay: biochemical; conditions: supercoiling of relaxed pBR322, 30 minutes at 37° C.
E. coli gyrase, sequence (P0AES4 whole entry, one chain of several): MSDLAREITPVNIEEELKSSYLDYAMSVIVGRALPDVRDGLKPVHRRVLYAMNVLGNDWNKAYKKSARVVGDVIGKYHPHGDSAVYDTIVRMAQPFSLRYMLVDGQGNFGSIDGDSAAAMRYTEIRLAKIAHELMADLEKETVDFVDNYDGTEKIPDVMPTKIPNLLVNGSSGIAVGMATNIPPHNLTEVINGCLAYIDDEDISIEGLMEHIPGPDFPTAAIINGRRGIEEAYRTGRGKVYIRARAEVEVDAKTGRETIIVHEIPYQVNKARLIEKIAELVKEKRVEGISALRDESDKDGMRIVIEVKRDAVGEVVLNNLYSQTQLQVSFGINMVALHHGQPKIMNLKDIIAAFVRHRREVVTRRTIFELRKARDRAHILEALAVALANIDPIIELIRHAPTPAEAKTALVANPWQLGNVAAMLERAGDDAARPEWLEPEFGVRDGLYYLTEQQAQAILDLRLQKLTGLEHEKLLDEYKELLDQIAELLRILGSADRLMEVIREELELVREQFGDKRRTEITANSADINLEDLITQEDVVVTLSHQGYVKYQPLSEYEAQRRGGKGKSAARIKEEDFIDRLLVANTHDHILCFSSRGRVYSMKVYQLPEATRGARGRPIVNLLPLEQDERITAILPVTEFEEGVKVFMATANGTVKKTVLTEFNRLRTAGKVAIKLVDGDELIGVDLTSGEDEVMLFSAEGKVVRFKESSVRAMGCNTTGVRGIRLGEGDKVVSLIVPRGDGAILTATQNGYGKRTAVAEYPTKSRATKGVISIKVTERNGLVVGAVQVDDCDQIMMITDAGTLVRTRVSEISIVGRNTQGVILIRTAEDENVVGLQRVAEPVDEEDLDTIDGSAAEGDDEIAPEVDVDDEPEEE

N. gonorrhoeae 2637 = assay: Test C cross resistance antibacterial assay (MIC); format: cell-based, Neisseria gonorrhoeae
N. gonorrhoeae 2709 = assay: Test C cross resistance antibacterial assay (MIC); format: cell-based; conditions: Neisseria gonorrhoeae, 2709, read-out: Minimum Inhibitory Concentrations, N. g. 2709
S. aureus 2552 = assay: Test C cross resistance antibacterial assay (MIC); format: cell-based
Protocol: (§2) The compounds of the present invention were tested against an assortment of ciprofloxacin resistant E. coli and S. aureus organisms described below using standard microtitration techniques (Cohen, et al., Antimicrob. Agents Chemother., 1985;28:766; Heifetz, et al., Antimicrob. Agents Chemother., 1974;6:124).

S. aureus UC-76 = assay: Test C cross resistance antibacterial assay (MIC); format: cell-based; conditions: Staphylococcus aureus
Protocol: as §2

S. pyogenes = assay: In vivo median protective dose in mice given lethal systemic infections; conditions: lethal systemic infection
[1] = Neisseria gonorrhoeae, 2637, derivative of MS11, parent strain, read-out: Minimum Inhibitory Concentrations, N. g. 2637
[2] = Staphylococcus aureus, 2552, upregulated norA pump, read-out: Minimum Inhibitory Concentrations, S. aureus 2552
[3] = UC76, wild type sensitive strain, read-out: Minimum Inhibitory Concentrations, S. aureus UC-76

Row | SMILES | melting point [°C] | MIC (E. coli Tol C) [µg/mL] | MIC (E. faecalis RB1) [µg/mL] | MIC (E. coli B90) [µg/mL] | MIC (S. aureus 29213) [µg/mL] | MIC (S. pyogenes C203) [µg/mL] | MIC (E. coli MC 4100) [µg/mL] | IC50 (E. coli gyrase) [nM] | MIC (N. gonorrhoeae 2637; [1]) [µg/mL] | MIC (N. gonorrhoeae 2709) [µg/mL] | MIC (S. aureus 2552; [2]) [µg/mL] | MIC (S. aureus UC-76; [3]) [µg/mL] | In Vivo Median Protective Dose (PD50) in Mice (PO) (S. pyogenes) [mg/kg] | MIC (N. gonorrhoeae 2637; Neisseria gonorrhoeae, 2637, read-out: Minimum Inhibitory Concentrations, N. g. 2637) [µg/mL] | MIC (S. aureus 2552; Staphylococcus aureus, 2552, read-out: Minimum Inhibitory Concentrations, S. aureus 2552) [µg/mL] | MIC (S. aureus UC-76; UC76, read-out: Minimum Inhibitory Concentrations, S. aureus UC-76) [µg/mL]
1 | Cc1c(N2CC[C@@H]([C@@H](C)N)C2)c(F)cn2c(=O)n(N)c(=O)c(C3CC3)c12.Cl | 218 to 221 | – | – | – | – | – | – | – | – | – | – | – | – | – | – | –
2 | Cc1c(N2CC(C(C)N)C(C)(C)C2)c(F)cn2c(=O)n(N)c(=O)c(C3CC3)c12 (stereo not shown) [Compound 5c, 2-Amino-6-[4-(1-amino-ethyl)-3,3-dimethylpyrrolidin-1-yl]-4-cyclopropropyl-7-fluoro-5-methyl-pyrido[1,2-c]pyrimidine-1,3-dione, hydrochloride] | – | 0.5 | 2 | 2 | 2 | 0.5 | 16 | 700 | – | – | – | – | – | – | – | –
3 | Cc1c(N2CC[C@@H](C3(N)CC3)C2)c(F)cn2c(=O)n(N)c(=O)c(C3CC3)c12 [Compound 4i, 2-Amino-6-[(R)-3-(1-aminocyclopropyl)pyrrolidin-1-yl]-4-cyclopropyl-7-fluoro-5-methylpyrido[1,2-c]pyrimidine-1,3-dione] | – | 0.015 (≈ 0.0402 µM) | 0.06 (≈ 0.161 µM) | 0.03 (≈ 0.0803 µM) | 0.06 (≈ 0.161 µM) | 0.015 (≈ 0.0402 µM) | 0.5 (≈ 1.34 µM) | 640 | 0.03 (≈ 0.0803 µM) | 0.13 (≈ 0.348 µM) | 0.06 (≈ 0.161 µM) | 0.06 (≈ 0.161 µM) | 2.1 | – | – | –
4 | Cc1c(N2CC[C@@H]([C@H](C)N)C2)c(F)cn2c(=O)n(N)c(=O)c(C3CC3)c12.Cl [Compound 5b, 2-Amino-6-[(R)-3-((S)-1-aminoethyl)pyrrolidin-1-yl]-4-cyclopropyl-7-fluoro-5-methyl-pyrido[1,2-c]pyrimidine-1,3-dione, hydrochloride] | 218 to 220 | 0.03 | 0.13 | 0.06 | 0.25 | 0.008 | 0.5 | 500 | 0.13 | 0.25 | 0.25 | 0.06 | – | – | – | –
5 | Cc1c(N2CCCC2)c(F)cn2c(=O)n(N)c(=O)c(C3CC3)c12 [Compound 4g, 2-Amino-4-cyclopropyl-7-fluoro-5-methyl-6-pyrrolidin-1-yl-pyrido[1,2-c]pyrimidine-1,3-dione] | 202 to 204 | < 0.06 | 2 (≈ 6.28 µM) | 0.25 (≈ 0.785 µM) | 1 (≈ 3.14 µM) | 1 (≈ 3.14 µM) | 16 (≈ 50.3 µM) | 1700 | – | – | – | – | – | – | – | –
6 | Cc1c(N2CCC(C(C)O)C2)c(F)cn2c(=O)n(N)c(=O)c(C3CC3)c12 (stereo not shown) [Compound 4h] | 172 to 174 | < 0.06 | 2 (≈ 5.52 µM) | 0.13 (≈ 0.359 µM) | 0.5 (≈ 1.38 µM) | 2 (≈ 5.52 µM) | 16 (≈ 44.1 µM) | 1200 | – | – | 1 (≈ 2.76 µM) | 0.5 (≈ 1.38 µM) | – | – | – | –
7 | Cc1c(N2CC(C)C(C(C)N)C2)c(F)cn2c(=O)n(N)c(=O)c(C3CC3)c12.Cl (stereo not shown) | 238 to 240 | – | – | – | – | – | – | – | – | – | – | – | – | – | – | –
8 | O=C(O)c1cn(C2CC2)c2cc(N3CCNCC3)c(F)cc2c1=O [Ciprofloxacin, ciprofloxacin, reference compound] | – | < 0.01 | 0.5 (≈ 1.51 µM) | < 0.01 | 0.5 (≈ 1.51 µM) | 0.5 (≈ 1.51 µM) | < 0.02 | – | – | 0.06 (≈ 0.181 µM) | – | – | >100 | 0.002 (≈ 0.00604 µM) | 2 (≈ 6.04 µM) | 0.13 (≈ 0.392 µM)
9 | Cc1c(N2CCC(N)C2)c(F)cn2c(=O)n(N)c(=O)c(C3CC3)c12.Cl (stereo not shown) | 246 to 248 | – | – | – | – | – | – | – | – | – | – | – | – | – | – | –
10 | CN[C@@H](C)[C@@H]1CCN(c2c(F)cn3c(=O)n(N)c(=O)c(C4CC4)c3c2C)C1 [Compound 4f, 2-Amino-4-cyclopropyl-7-fluoro-5-methyl-6-[3-(1-methylaminoethyl)pyrrolidin-1-yl]pyrido[1,2-c]pyrimidine-1,3-dione] | – | 0.03 (≈ 0.0799 µM) | 0.06 (≈ 0.16 µM) | 0.13 (≈ 0.346 µM) | 0.25 (≈ 0.666 µM) | 0.015 (≈ 0.04 µM) | 2 (≈ 5.33 µM) | 1000 | 0.25 (≈ 0.666 µM) | 0.5 (≈ 1.33 µM) | 0.5 (≈ 1.33 µM) | 0.06 (≈ 0.16 µM) | 1.2 | – | – | –
11 | Cc1c(N2CC(C(C)N)C(C)(C)C2)c(F)cn2c(=O)n(N)c(=O)c(C3CC3)c12 (stereo not shown) (as salt: hydrochloride) [Compound 5c, 2-Amino-6-[4-(1-amino-ethyl)-3,3-dimethylpyrrolidin-1-yl]-4-cyclopropropyl-7-fluoro-5-methyl-pyrido[1,2-c]pyrimidine-1,3-dione, hydrochloride] | 238 to 240 | – | – | – | – | – | – | – | – | – | – | – | – | – | – | –
12 | Cc1c(N2C[C@H](CN)[C@H](F)C2)c(F)cn2c(=O)n(N)c(=O)c(C3CC3)c12 (racemic) [Compound 4j, 2-Amino-6-((3S,4S) and (3R,4R)-3-aminomethyl-4-fluoropyrrolidin-1-yl)-4-cyclopropyl-7-fluoro-5-methylpyrido[1,2-c]pyrimidine-1,3-dione] | – | 0.13 (≈ 0.356 µM) | 0.5 (≈ 1.37 µM) | 0.25 (≈ 0.684 µM) | – | 0.03 (≈ 0.0821 µM) | 2 (≈ 5.47 µM) | 1500 | – | – | – | – | – | – | – | –
